From ChEMBL document CHEMBL1129469, “Nonpeptide angiotensin II receptor antagonists: the next generation in antihypertensive therapy” (J Med Chem, 1996)
Positions count from the first letter of the chain named.

Tests used:
[1] = species on record: Oryctolagus cuniculus; experiment: Inhibitory activity against angiotensin II type 1 induced contractions in rabbit aorta; type: functional
[2] = biological target: T1, Angiotensin II receptor (AT-1) type-1 (Rattus norvegicus, UniProt P29089+P25095); experiment: Inhibitory activity against Angiotensin II receptor, type 1 in rat aortic membrane; type: cell membranes
T1 sequence (P29089 whole entry): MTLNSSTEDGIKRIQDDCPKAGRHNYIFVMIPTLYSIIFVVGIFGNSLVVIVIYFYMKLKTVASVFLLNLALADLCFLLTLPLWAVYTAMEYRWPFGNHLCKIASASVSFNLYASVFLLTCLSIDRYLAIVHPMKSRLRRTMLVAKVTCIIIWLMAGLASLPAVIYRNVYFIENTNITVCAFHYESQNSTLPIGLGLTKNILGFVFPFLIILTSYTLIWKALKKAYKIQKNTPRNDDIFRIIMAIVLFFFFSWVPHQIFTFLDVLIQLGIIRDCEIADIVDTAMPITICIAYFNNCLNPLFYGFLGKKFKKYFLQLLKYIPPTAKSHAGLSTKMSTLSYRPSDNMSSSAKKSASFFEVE
T1 sequence (P25095 whole entry): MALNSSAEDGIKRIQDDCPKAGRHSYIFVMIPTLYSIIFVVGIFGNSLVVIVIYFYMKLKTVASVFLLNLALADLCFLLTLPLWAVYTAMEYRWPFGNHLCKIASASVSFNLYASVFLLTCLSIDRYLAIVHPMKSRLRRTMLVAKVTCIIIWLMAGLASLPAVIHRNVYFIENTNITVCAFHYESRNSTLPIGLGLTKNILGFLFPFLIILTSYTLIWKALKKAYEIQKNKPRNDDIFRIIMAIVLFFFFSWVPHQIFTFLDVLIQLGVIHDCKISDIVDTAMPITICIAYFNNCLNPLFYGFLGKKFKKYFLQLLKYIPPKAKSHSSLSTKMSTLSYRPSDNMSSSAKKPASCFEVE

[3] = biological target: T2, Type-2 angiotensin II receptor (Homo sapiens, UniProt P50052); experiment: Ki value was evaluated against Angiotensin II receptor, type 2
T2 sequence (P50052 whole entry): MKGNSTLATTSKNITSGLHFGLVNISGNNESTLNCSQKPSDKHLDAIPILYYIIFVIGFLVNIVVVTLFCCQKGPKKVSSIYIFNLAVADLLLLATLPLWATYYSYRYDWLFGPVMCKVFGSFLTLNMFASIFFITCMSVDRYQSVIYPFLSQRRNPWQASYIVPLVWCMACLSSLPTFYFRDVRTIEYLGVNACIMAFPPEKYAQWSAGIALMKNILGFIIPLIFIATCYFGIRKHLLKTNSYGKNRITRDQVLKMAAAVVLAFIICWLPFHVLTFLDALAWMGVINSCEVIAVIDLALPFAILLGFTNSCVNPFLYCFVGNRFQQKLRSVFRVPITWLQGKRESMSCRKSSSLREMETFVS

[4] = biological target: T3, Type-1 angiotensin II receptor (Homo sapiens, UniProt P30556); experiment: Ki value was evaluated against Angiotensin II receptor, type 1
T3 sequence (P30556 whole entry): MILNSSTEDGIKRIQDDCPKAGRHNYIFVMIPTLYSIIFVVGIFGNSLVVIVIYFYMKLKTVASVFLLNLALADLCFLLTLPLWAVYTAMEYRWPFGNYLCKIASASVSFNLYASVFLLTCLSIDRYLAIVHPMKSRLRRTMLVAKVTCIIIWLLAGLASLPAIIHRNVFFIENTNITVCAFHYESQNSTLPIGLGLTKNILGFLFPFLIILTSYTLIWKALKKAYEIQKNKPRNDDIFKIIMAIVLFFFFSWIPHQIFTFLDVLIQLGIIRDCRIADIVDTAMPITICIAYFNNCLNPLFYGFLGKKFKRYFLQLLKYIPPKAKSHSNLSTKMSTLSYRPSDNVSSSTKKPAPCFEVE

[5] = system: Rattus norvegicus; experiment: Intravenous effective dose required for lowering blood pressure in renal hypertensive rats (RHR); type: functional
[6] = biological target: T4, Type-1 angiotensin II receptor (Cavia porcellus, UniProt Q9WV26); experiment: In vitro antagonistic potency against Angiotensin II receptor, type 1 in guinea pig adrenal membrane; type: functional, cell membranes
T4 sequence (Q9WV26 whole entry): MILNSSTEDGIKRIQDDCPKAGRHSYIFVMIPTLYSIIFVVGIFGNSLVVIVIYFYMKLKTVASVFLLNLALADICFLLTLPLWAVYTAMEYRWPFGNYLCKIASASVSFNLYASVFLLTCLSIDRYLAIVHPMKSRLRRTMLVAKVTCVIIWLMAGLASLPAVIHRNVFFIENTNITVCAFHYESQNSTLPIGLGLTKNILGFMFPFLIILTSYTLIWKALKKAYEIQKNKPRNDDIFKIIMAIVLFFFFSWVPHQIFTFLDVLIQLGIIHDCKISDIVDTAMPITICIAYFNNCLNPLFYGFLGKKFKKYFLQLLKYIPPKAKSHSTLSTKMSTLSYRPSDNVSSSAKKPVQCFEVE

[7] = system: Rattus norvegicus; experiment: Effective dose required for inhibition of Ang II-induced pressor response in conscious rats; type: functional
[8] = system: Rattus norvegicus; experiment: Percent inhibition was evaluated to inhibit Ang II pressor response in conscious rats at oral dose 1 mg/kg; type: functional
[9] = species on record: Rattus norvegicus; experiment: Effective dose required for lowering blood pressure in renal hypertensive rats (RHR); type: functional
[10] = system: Canis familiaris; experiment: Oral effective dose required for inhibition of Ang II pressor response in conscious dog; type: functional; conditions: Canis lupus familiaris
[11] = system: Rattus norvegicus; experiment: Oral effective dose required for inhibition of Ang II pressor response in conscious rat; type: functional
[12] = system: Rhesus monkey; experiment: Oral effective dose required for inhibition of Ang II pressor response in conscious rhesus monkey; type: functional, Cercopithecidae; conditions: Macaca mulatta
[13] = biological target: T1, Angiotensin II receptor (AT-1) type-1; experiment: In vitro antagonistic potency against Angiotensin II receptor, type 1 in rat liver using [125I]-Sar1-Ile8-Ang II as radioligand; type: functional, tissue-based
[14] = species on record: Oryctolagus cuniculus; experiment: Compound was tested for its antagonistic activity against angiotensin II-induced contractions in rabbit aorta; type: functional
[15] = biological target: T1, Angiotensin II receptor (AT-1) type-1; experiment: Binding affinity was evaluated towards Angiotensin II receptor, type 1 in rat adrenal membrane; type: cell membranes
[16] = biological target: T1, Angiotensin II receptor (AT-1) type-1; experiment: In vitro antagonistic potency against Angiotensin II receptor, type 1 in rat adrenal cortex; type: functional, tissue-based
[17] = biological target: T5, Type-1 angiotensin II receptor (Oryctolagus cuniculus, UniProt P34976); experiment: Inhibitory activity was evaluated against angiotensin II type 1 rabbit aorta; type: tissue-based
T5 sequence (P34976 whole entry): T3 sequence (P30556 whole entry) with I2M, V49A, I254V, I270V, R272H, R311K, T349S, A353V

[18] = system: Rattus norvegicus; experiment: Intravenous effective dose against Ang II-induced pressor responses in conscious rats; type: functional
[19] = biological target: T2, Type-2 angiotensin II receptor; experiment: Inhibition of Angiotensin II receptor, type 2
[20] = biological target: T3, Type-1 angiotensin II receptor; experiment: Inhibition of Angiotensin II receptor, type 1
[21] = system: Rattus norvegicus; experiment: Percent inhibition was evaluated against Ang II pressor in rats at dose 3 mg/kg, by oral administration; type: functional
[22] = biological target: T1, Angiotensin II receptor (AT-1) type-1; experiment: In vitro antagonistic potency against Angiotensin II receptor, type 1 in rat liver; type: functional, tissue-based
[23] = species on record: Rattus norvegicus; experiment: Oral effective dose required for lowering blood pressure in spontaneous hypertensive rats (SHR); type: functional
[24] = species on record: Rattus norvegicus; experiment: Oral effective dose required for lowering blood pressure in renal hypertensive rats (RHR); type: functional
[25] = Oral Bioavailability was evaluated in cynomolgus monkeys by oral administration; type: ADME, organism-based, Macaca fascicularis; conditions: cynomolgus monkey, in vivo
[26] = Oral Bioavailability was evaluated in dog by oral administration; type: ADME, organism-based, Canis lupus familiaris; conditions: in vivo
[27] = Oral bioavailability in rat; type: ADME, organism-based; conditions: in vivo
[28] = biological target: T5, Type-1 angiotensin II receptor; experiment: Binding affinity was evaluated towards Angiotensin II receptor, type 1 in rabbit aorta; type: tissue-based
[29] = system: Rattus norvegicus; experiment: Compound at an oral dose of 3 mg/Kg was tested for the inhibition of Ang-II induced pressor responses in conscious rats; type: functional
[30] = species on record: Oryctolagus cuniculus; experiment: PD' 2 value was evaluated for antagonistic activity in rabbit aorta; type: functional
[31] = system: Rattus norvegicus; experiment: Oral effective dose required for inhibition of pressor response in conscious rats; type: functional
[32] = system: Rattus norvegicus; experiment: Effective dose was evaluated in pithed normotensive rats by intraveneous administration; type: functional; conditions: iv
[33] = system: Rattus norvegicus; experiment: Effective dose was evaluated in pithed normotensive rats by oral administration; type: functional
[34] = species on record: Rattus norvegicus; experiment: pD'2 value was evaluated against in rat portal vein; type: functional
[35] = Inhibitory activity was evaluated against Angiotensin II receptor, type 2
[36] = species on record: Rattus norvegicus; experiment: Oral effective dose required for inhibition of Ang II pressor response in rats; type: functional
[37] = system: Canis familiaris; experiment: Compound at an oral dose of 30 mg/Kg was tested for the inhibition of Ang-II induced pressor responses in conscious dog; type: functional; conditions: Canis lupus familiaris
[38] = system: HASMC; experiment: Inhibitory activity against Ang II-induced proliferation of human aortic smooth muscle cells in a dose dependent manner; type: functional, cell-based

CCOc1nc2cccc(C(=O)O)c2n1Cc1ccc(-c2ccccc2-c2nnn[nH]2)cc1
IC50 [1]: 0.3 nM

CCCCC(=O)N(Cc1ccc(-c2ccccc2-c2nnn[nH]2)cc1)[C@H](C(=O)O)C(C)C
IC50 [2]: 2.7 nM

CCCCc1nc2ccc(NC(=O)NC3CCCCC3)cc2n1Cc1ccc(-c2ccccc2C(=O)O)cc1
Ki [3]: 480 nM
Ki [4]: 29 nM
ED30 [5]: ~2 mg/kg

CCc1cc2c(c(CC)n1)CCC(=O)N2Cc1ccc(-c2ccccc2-c2nnn[nH]2)cc1
IC50 [6]: 3.8 nM
ED50 [7]: 0.19 mg/kg

CCCCc1nc2ccc(NC(=O)N(C)C(C)C)cc2c(=O)n1Cc1ccc(-c2ccccc2-c2nn[nH]n2)cc1
inhibition in vivo at 1 mg/kg [8]: 84%

CCCCc1nc(Cl)c(CC(=O)OC)n1Cc1ccc(NC(=O)c2ccccc2C(=O)O)cc1
ED30 [9]: 11 mg/kg

CCc1cc(OCc2ccc(-c3ccccc3-c3nnn[nH]3)cc2)c2ccccc2n1
IC50 [6]: 30 nM

CCc1nc2c(C)cc(C)nc2n1Cc1ccc(-c2ccccc2S(=O)(=O)NC(=O)c2ccccc2)cc1
ED50 [10]: 0.035 mg/kg
ED50 [11]: 0.067 mg/kg
ED50 [12]: 0.1 mg/kg

CCc1nc(C2CC2)c(C(N)=O)n1Cc1ccc2oc(-c3ccccc3NS(=O)(=O)C(F)(F)F)c(Br)c2c1
Log Ki [13]: -9.3
pKB [14]: 9

CCCc1nc(C)n2[nH]c(=O)nc2c1Cc1ccc(-c2ccccc2-c2nnn[nH]2)cc1
Ki [15]: 24 nM
Kb [14]: 0.29 nM

CCCCCCC(C(=O)O)n1cnc(NC(=O)c2cccc(O)c2C(=O)O)c1 (stereo not given)
Ki [16]: 4400 nM
Kb [14]: 78 nM

CCc1nc2c(CC)cn(Cc3ccc(-c4ccccc4-c4nn[nH]n4)cc3)n2n1
IC50 [17]: 1.7 nM

CCCCc1nc(Cl)c(C(=O)O)n1Cc1cccc2c1ccn2-c1ccccc1-c1nn[nH]n1
Ki [16]: 800 nM
Kb [14]: 0.068 nM
ED50 [18]: 0.22 µmol/kg

CCCCCN(C(=O)NC)c1ccc2nc(CCCC)n(Cc3ccc(NC(=O)c4c(Cl)ccc(Cl)c4C(=O)O)cc3)c2c1
Ki [3]: 730 nM
Ki [4]: 20 nM
ED30 [5]: 2 mg/kg

CCCCCN(Cc1ccc(-c2ccccc2-c2nn[nH]n2)cc1)C(=O)N1CCN(C(=O)N(c2ccccc2)c2ccccc2)[C@H](C(=O)O)C1
IC50 [19]: 180 nM
IC50 [20]: 15 nM
inhibition in vivo at 3 mg/kg [21]: 80%

COc1c(OCc2ccc(-c3ccccc3-c3nn[nH]n3)cc2)cc(C)nc1C
Log Ki [22]: -8.7
ED50 [23]: 0.48 mg/kg
ED50 [24]: 2.5 mg/kg

CCCN(Cc1ccc(-c2ccccc2-c2nn[nH]n2)cc1)c1ncccc1C(=O)O
bioavailability [25]: > 50%
bioavailability [26]: > 50%
bioavailability [27]: > 50%
Ki [22]: 0.76 nM

CCCCc1nc(C)n(Cc2sccc2C(=O)OC)c(=O)c1Cc1ccc(-c2ccccc2-c2nnn[nH]2)cc1
Ki [28]: 0.9 nM
pKb [14]: 9.5

CCc1nc2c(C)cc(C)nc2n1Cc1ccc2c(c1)C(Cc1nnn[nH]1)c1ccccc1-2 (stereo not given)
inhibition in vivo at 3 mg/kg [29]: 73%

CCc1nc2c(n1Cc1ccc(-c3ccccc3-c3nn[nH]n3)cc1)/C(=C/C(=O)O)CCCC2
PD' 2 [30]: 9.91

CCCCc1nc(Cl)c(C(=O)OC(C)OC(=O)OCC)n1Cc1ccc(-c2ccccc2-c2nn[nH]n2)cc1 (stereo not given)
ED50 [31]: 0.5 mg/kg

CCCCc1nc(SC)c(C(=O)O)n1Cc1ccc(-c2ccccc2S(=O)(=O)NC(=O)NCCC)cc1
ED50 [32]: 0.11 mg/kg
ED50 [33]: 0.7 mg/kg
pD'2 [34]: 10.15
IC50 [35]: 920 nM

CCOc1nc2cccc(C(=O)OC(C)OC(=O)OC3CCCCC3)c2n1Cc1ccc(-c2ccccc2-c2nn[nH]n2)cc1 (stereo not given) [CANDESARTAN CILEXETIL]
ED50 [36]: 0.069 mg/kg

CCCCc1nc(CCCC)n(Cc2ccc(-c3ccccc3-c3nnn[nH]3)nc2)n1 [FORASARTAN]
inhibition in vivo at 30 mg/kg [37]: 91%

CCCCc1nc(Cl)c(CO)n1Cc1ccc(-c2ccccc2-c2nnn[nH]2)cc1 [LOSARTAN]
IC50 [38]: 0.71 nM
Kb [14]: 22 nM
pKB [14]: 8.2
ED30 [5]: 0.78 mg/kg
ED30 [24]: 0.59 mg/kg

CCCCc1nc(Cl)c(C(=O)O)n1Cc1ccc2oc(-c3ccccc3-c3nnn[nH]3)c(Br)c2c1 [ZOLASARTAN]
bioavailability [27]: 3%
Log Ki [13]: -9
pKB [14]: 9.8
